Assay in all cases: NCI anticancer screen, dose series, 48 h
For experiment [1], the system named is MOLT-4.
For experiment [2], the system named is SK-MEL-5.
The test system of experiment [3] is SK-OV-3.
Experiment [4] has as its system UACC-62.
The subject of experiment [5] is SNB-19.
For experiment [6], the system named is OVCAR-5.
Experiment [7] has as its system Malme-3M.
Experiment [8] deals with CCRF-CEM.
Experiment [9] has as its system LOX IMVI.
Experiment [10] concerns KM12.
Experiment [11] has as its system UO-31.
Experiment [12] has as its system A549.
Experiment [13] has as its system COLO 205.
Experiment [14] concerns SF-295.
The test system of experiment [15] is NCI-H460.
Experiment [16] concerns HOP-62.
The test system of experiment [17] is SK-MEL-2.
Experiment [18] deals with EKVX.
For experiment [19], the system named is CAKI-1.

Data on eight compounds can be found in ChEMBL document CHEMBL1201862, “PubChem BioAssay data set” (2004).

The structures appear in SMILES notation.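 Briefly, cells in 96-well plates were exposed to five compound concentrations for 48 h, and endpoints were estimated by linear interpolation. The concentration for 50% growth inhibition is given as GI50.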 Calls of active or inactive are those of the source. Rule as the data show it: active = GI50 up to about 1.1 µM and inactive = higher. Some results are limits rather than exact numbers.

As to `Cc1[nH]c2c(C)cccc2c1C1Cc2ccccc2N1` (centres undefined), the GI50 in experiment [1] was 20.5 µM (inactive); in experiment [2], 18.5 µM (inactive); in experiment [3], 36.5 µM (inactive); in experiment [4] it was 18.6 µM (inactive); in experiment [5], 29.1 µM (inactive); in [6], 21.2 µM (inactive). For the same compound, the GI50 in experiment [7] was 19.1 µM (inactive); in [8] it was 25.5 µM (inactive); in experiment [9] it was 17.1 µM (inactive); in experiment [10], 17.5 µM (inactive); in [11], 22.1 µM (inactive); in experiment [12] it was 21.7 µM (inactive). Besides, the GI50 in experiment [13] is 18.2 µM (inactive); in experiment [14] it was 19.8 µM (inactive); in experiment [15] it was 25.1 µM (inactive); in [16], 16.4 µM (inactive); in [17], 28.8 µM (inactive); in [18], 15.5 µM (inactive).

Turning to `O=c1[nH]c(=O)n(C2CC(O)C(CO)O2)cc1OCC1CCCCC1` (centres undefined), the GI50 in [19], in experiment [1], in experiment [2], in experiment [3], in experiment [4] and in experiment [5] was > 100 µM (inactive) each time. Further, the GI50 in experiment [6], in experiment [7], in experiment [8], in experiment [9], in [10] and in [11] was > 100 µM (inactive) each time. The GI50 in experiment [12], in [13], in [14], in experiment [15], in experiment [16] and in experiment [18] was > 100 µM (inactive) in each case.

In the case of `CCCCCCOc1ccc(NC2=C(Cl)C(=O)c3ncccc3C2=O)cc1`, the GI50 in experiment [1] was 2.24 µM (inactive); in experiment [2], 1.54 µM (inactive); in experiment [3] it was > 10 µM (inactive); in experiment [4], 1.44 µM (inactive); in experiment [5], 1.97 µM (inactive); in experiment [6], 7.35 µM (inactive). Moreover, the GI50 in [7] was 1.91 µM (inactive); in experiment [8], 1.21 µM (inactive); in experiment [9], 1.61 µM (inactive); in experiment [10] it was 1.33 µM (inactive); in [11], 1.39 µM (inactive); in experiment [12], 2.49 µM (inactive). Besides, the GI50 was 1.96 µM (inactive) in experiment [14], 1.55 µM (inactive) in experiment [15], 1.92 µM (inactive) in experiment [16] and > 10 µM (inactive) in experiment [18].

With `Cn1c(=O)sc2cc(C(=S)N3CCCCC3)ccc21`, the GI50 in experiment [19] was 46.9 µM (inactive); in experiment [1], 27.6 µM (inactive); in experiment [2] it was > 100 µM (inactive); in experiment [3], > 100 µM (inactive); in experiment [4], > 100 µM (inactive); in [5] it was > 100 µM (inactive). The GI50 in [6] is > 100 µM (inactive); in experiment [7], 0.865 µM (active); in [8] it was 16.5 µM (inactive); in [9], 81.5 µM (inactive); in experiment [10], > 100 µM (inactive); in experiment [13] it was 57.9 µM (inactive). The GI50 was 92.7 µM (inactive) in [14]; > 100 µM (inactive) in experiment [15]; > 100 µM (inactive) in [16]; > 100 µM (inactive) in experiment [17]; 16.1 µM (inactive) in experiment [18].

`CCCCCC/C=C\CCCCCCCCCc1cccc(OC)c1O`: the GI50 in [19], in experiment [1], in [2], in experiment [3], in experiment [4] and in experiment [5] was > 100 µM (inactive) throughout. Further, the GI50 in [6] was > 100 µM (inactive); in experiment [7], > 100 µM (inactive); in experiment [8], > 100 µM (inactive); in experiment [9], > 100 µM (inactive); in [10], 80 µM (inactive); in experiment [11], > 100 µM (inactive). Moreover, the GI50 in [12], in experiment [13], in experiment [14], in experiment [16], in experiment [17] and in experiment [18] was > 100 µM (inactive) throughout.

Regarding `O=c1[nH]c(=O)c2c([nH]1)[nH]c1ccccc12`, the GI50 in experiment [19], in experiment [1], in experiment [2], in [3], in [4] and in experiment [5] was > 100 µM (inactive) each time. For the same compound, the GI50 was > 100 µM (inactive) in experiment [6]; > 100 µM (inactive) in experiment [7]; > 100 µM (inactive) in experiment [8]; > 100 µM (inactive) in [9]; 37.8 µM (inactive) in experiment [10]; > 100 µM (inactive) in experiment [11]. For the same compound, the GI50 in experiment [12], in experiment [13], in experiment [14], in experiment [16], in [17] and in experiment [18] was > 100 µM (inactive) each time.

Consider `O=C(CSc1nnc(Cc2ccccc2)o1)Nc1ccc(Cl)cc1[N+](=O)[O-]`, for which the GI50 was 18.9 µM (inactive) in experiment [1]; 16.9 µM (inactive) in experiment [2]; 34.5 µM (inactive) in [3]; 14.2 µM (inactive) in experiment [4]; 14.4 µM (inactive) in experiment [5]; 16.4 µM (inactive) in experiment [7]. Moreover, the GI50 in [8] was 15.6 µM (inactive); in [9], 13.1 µM (inactive); in experiment [10], > 10 µM (inactive); in [11], 18.4 µM (inactive); in experiment [12], 18.9 µM (inactive); in experiment [13], 21.9 µM (inactive). Further, the GI50 in experiment [14] was 18.7 µM (inactive); in [15], > 10 µM (inactive); in [16], 17.4 µM (inactive); in [17], 15.9 µM (inactive); in experiment [18], 20.3 µM (inactive).

On to `CC1=C2C3=C(C)C(=O)C(C)(C)CC[C@@]3(C)[C@]2(C)CCC(C)(C)C1=O`, for which the GI50 in [19], in experiment [1], in experiment [2], in experiment [3], in experiment [4] and in [5] was > 100 µM (inactive) each time. Also, the GI50 in experiment [6], in experiment [7], in experiment [8], in experiment [9], in experiment [10] and in [11] was > 100 µM (inactive) each time. Besides, the GI50 in [12], in experiment [13], in experiment [14], in experiment [16] and in experiment [18] was > 100 µM (inactive) each time.
